Measured values as given in patent publication US8846730B2, “Compounds as cannabinoid receptor ligands” (priority 2008, dated 2014).
Where two headings read alike, the source gives them in different places.

Experiments:
[1] = molecular target: rat CB1 receptors (HEK cells) (Rattus norvegicus (Rat), UniProt P20272); experiment: rat CB1 cyclase functional assay (HitHunter cAMP); format: cell-based
[2] = molecular target: human CB2 receptors (Homo sapiens (Human), UniProt P34972); experiment: human CB2 radioligand binding assay ([3H]CP 55,940 competition); conditions: HEK293 membranes, 0.5 nM [3H]CP 55,940; read-out: human CB2 (Ki)
Sequence of human CB2 receptors (P34972 whole entry): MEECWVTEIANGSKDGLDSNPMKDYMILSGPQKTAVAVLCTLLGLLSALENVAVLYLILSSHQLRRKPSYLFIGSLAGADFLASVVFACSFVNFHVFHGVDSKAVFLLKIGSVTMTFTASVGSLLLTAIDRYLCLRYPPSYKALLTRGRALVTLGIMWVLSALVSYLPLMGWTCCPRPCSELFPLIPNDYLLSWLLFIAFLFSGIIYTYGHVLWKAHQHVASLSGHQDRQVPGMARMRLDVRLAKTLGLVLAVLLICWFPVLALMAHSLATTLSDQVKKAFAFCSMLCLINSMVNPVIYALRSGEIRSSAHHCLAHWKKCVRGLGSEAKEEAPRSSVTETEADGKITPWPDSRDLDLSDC
Summary of the method: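 Displacement of 0.5 nM [3H]CP 55,940 over 0.01 nM-10 μM test compound, measured on human CB2 membranes from stably transfected HEK293 cells. Incubation 90 min at 30 °C in Tris/EDTA/MgCl2/BSA, pH 7.4, then filter-bound radioactivity counted; 10 μM unlabeled CP 55,940 defined nonspecific binding.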

[3] = molecular target: rat CB2 receptors (Rattus norvegicus (Rat), UniProt Q9QZN9); experiment: rat CB2 radioligand binding assay ([3H]CP 55,940 competition); conditions: HEK293 membranes, 0.5 nM [3H]CP 55,940
Summary of the method: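 Membranes from HEK293 cells stably expressing rat CB2 (20 μg protein/well) were incubated 45 min at 30 °C with 0.5 nM [3H]CP 55,940 and five displacer concentrations, in pH 7.4 Tris buffer with 0.5 mg/mL BSA. Bound radioactivity was measured by filtration. Nonspecific binding was defined with 10 μM unlabeled CP 55,940.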

[4] = molecular target: rat CB2 receptors (HEK cells) (Rattus norvegicus (Rat), UniProt Q9QZN9); experiment: rat CB2 cyclase functional assay (HitHunter cAMP); format: cell-based
Experimental: The cyclase functional assays were performed using the HitHunter™ cAMP assay kit from DiscoveRx (Fremont, Calif.) according to vendor's protocol. Briefly, HEK cells expressing CB2 or CB1 receptors (rat or human) were detached using cell dissociation buffer (Invitrogen, Carlsbad, Calif.), dispersed and placed in suspension at 10,000 cells per well in 96 well plates prior to the assay. Cell suspensions were incubated at 37° C. for 20 min with variable concentrations of test ligands and or 10 μM CP 55,940-positive control in the presence of a fixed concentration of forskolin (18 μM for rat CB2 and 37 μM for rat CB1) in Dulbescco's phosphate-buffered saline (Invitrogen, Carlsbad, Calif.) supplemented with bovine serum albumin (0.01% final concentration). The reactions were terminated by the addition of lysis buffer and the luminescence was detected following the procedure according to the manufacturer's instructions. EC50 values were calculated using sigmoidal dose-response curve fitting from Prism (GraphPad).

[5] = HEK cells, forskolin 18 μM, read-out: rat CB2 cyclase (EC50)
[6] = HEK cells, forskolin 37 μM, read-out: rCB1 cyclase (EC50)

Sequence of rat CB1 receptors (HEK cells) (P20272 whole entry): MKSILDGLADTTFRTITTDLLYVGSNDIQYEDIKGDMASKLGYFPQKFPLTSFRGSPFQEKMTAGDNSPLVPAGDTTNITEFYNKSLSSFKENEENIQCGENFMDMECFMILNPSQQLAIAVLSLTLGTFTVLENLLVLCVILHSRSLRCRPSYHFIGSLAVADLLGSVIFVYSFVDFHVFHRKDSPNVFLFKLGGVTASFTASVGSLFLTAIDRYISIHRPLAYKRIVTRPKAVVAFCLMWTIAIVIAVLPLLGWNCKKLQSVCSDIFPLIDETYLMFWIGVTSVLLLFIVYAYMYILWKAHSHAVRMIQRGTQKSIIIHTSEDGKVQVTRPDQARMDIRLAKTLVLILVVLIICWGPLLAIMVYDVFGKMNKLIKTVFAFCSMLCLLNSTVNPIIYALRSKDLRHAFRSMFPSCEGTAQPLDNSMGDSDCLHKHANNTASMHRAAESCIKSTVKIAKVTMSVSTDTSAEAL

Compound | EC50 [1] | Ki [2] | Ki [3] | EC50 [4, 5] | EC50 [1, 6] | EC50 [4]
CN1CCC(COc2ccc(C(F)(F)F)cc2C(=O)/N=c2\sc(C(C)(C)C)cn2C[C@H]2CCCO2)CC1 [Example 15, N-[(2Z)-5-tert-butyl-3-[(2R)-tetrahydrofuran-2-ylmethyl]-1,3-thiazol-2(3H)-ylidene]-2-[(1-methylpiperidin-4-yl)methoxy]-5-(trifluoromethyl)benzamide] | 13000 nM | 1000 nM | 83 nM | 6.26 nM | – | –
CC(C)(C)c1cn(C[C@H]2CCCO2)/c(=N/C(=O)c2cc(C(F)(F)F)ccc2OC[C@@H]2CCCCN2)s1 [Example 4] | – | 0.7 nM | 0.6 nM | 0.4 nM | 395 nM | –
CN(CCOc1ccc(C(F)(F)F)cc1C(=O)/N=c1\sc(C(C)(C)C)cn1C[C@H]1CCCO1)c1ccccc1 [Example 35, N-[(2Z)-5-tert-butyl-3-[(2R)-tetrahydrofuran-2-ylmethyl]-1,3-thiazol-2(3H)-ylidene]-2-{2-[methyl(phenyl)amino]ethoxy}-5-(trifluoromethyl)benzamide] | 9490 nM | 14 nM | 6.5 nM | 6.31 nM | – | –
CN1CCCC[C@H]1COc1ccc(C(F)(F)F)cc1C(=O)/N=c1\sc(C(C)(C)C)cn1C[C@H]1CCCO1 [Example 5] | – | 0.7 nM | 1.4 nM | 0.15 nM | 612 nM | –
CC(C)(C)c1cn(C[C@H]2CCCO2)/c(=N/C(=O)c2cc(C(F)(F)F)ccc2OCc2ccccc2)s1 [Example 36, 2-(benzyloxy)-N-[(2Z)-5-tert-butyl-3-[(2R)-tetrahydrofuran-2-ylmethyl]-1,3-thiazol-2(3H)-ylidene]-5-(trifluoromethyl)benzamide] | 6560 nM | 6 nM | 2.9 nM | 1.47 nM | – | –
CN1CCN(C)C(COc2ccc(C(F)(F)F)cc2C(=O)/N=c2\sc(C(C)(C)C)cn2C[C@@H]2CCCO2)C1 (some centres unmarked) [Example 34, N-[(2Z)-5-tert-butyl-3-[(25)-tetrahydrofuran-2-ylmethyl]-1,3-thiazol-2(3H)-ylidene]-2-[(1,4-dimethylpiperazin-2-yl)methoxy]-5-(trifluoromethyl)benzamide] | – | 25 nM | 13 nM | 0.3 nM | 4090 nM | –
CC(C)(C)c1cn(C[C@H]2CCCO2)/c(=N/C(=O)c2cc(C(F)(F)F)ccc2OCc2ccccn2)s1 [Example 18, N-[(2Z)-5-tert-butyl-3-[(2R)-tetrahydrofuran-2-ylmethyl]-1,3-thiazol-2(3H)-ylidene]-2-(pyridin-2-ylmethoxy)-5-(trifluoromethyl)benzamide] | > 27000 nM | 20 nM | 6 nM | 1.02 nM | – | –
CN1CCC[C@H]1COc1ccc(C(F)(F)F)cc1C(=O)/N=c1\sc(C(C)(C)C)cn1C[C@H]1CCCO1 [Example 24, N-[(2Z)-5-tert-butyl-3-[(2R)-tetrahydrofuran-2-ylmethyl]-1,3-thiazol-2(3H)-ylidene]-2-{[(2S)-1-methylpyrrolidin-2-yl]methoxy}-5-(trifluoromethyl)benzamide] | 1990 nM | 4.6 nM | 3.4 nM | 0.09 nM | – | –
CC(C)(C)c1cn(C[C@H]2CCCO2)/c(=N/C(=O)c2cc(C(F)(F)F)ccc2OCc2cccc[n+]2[O-])s1 [Example 20, N-[(2Z)-5-tert-butyl-3-[(2R)-tetrahydrofuran-2-ylmethyl]-1,3-thiazol-2(3H)-ylidene]-2-[(1-oxidopyridin-2-yl)methoxy]-5-(trifluoromethyl)benzamide] | 7980 nM | 209 nM | 51 nM | 0.47 nM | – | –
Cn1ccnc1COc1ccc(C(F)(F)F)cc1C(=O)/N=c1\sc(C(C)(C)C)cn1C[C@H]1CCCO1 [Example 17, N-[(2Z)-5-tert-butyl-3-[(2R)-tetrahydrofuran-2-ylmethyl]-1,3-thiazol-2(3H)-ylidene]-2-[(1-methyl-1H-imidazol-2-yl)methoxy]-5-(trifluoromethyl)benzamide] | > 27000 nM | 53 nM | 15 nM | 2.75 nM | – | –
CN1CCC[C@H]1COc1ccc(C(F)(F)F)cc1C(=S)/N=c1\sc(C(C)(C)C)cn1C[C@H]1CCCO1 [Example 51, N-[(2Z)-5-tert-butyl-3-[(2R)-tetrahydrofuran-2-ylmethyl]-1,3-thiazol-2(3H)-ylidene]-2-{[(2S)-1-methylpyrrolidin-2-yl]methoxy}-5-(trifluoromethyl)benzenecarbothioamide] | 1320 nM | 1.3 nM | 0.9 nM | 0.34 nM | – | –
CN1CC[C@H]1COc1ccc(C(F)(F)F)cc1C(=O)/N=c1\sc(C(C)(C)C)cn1C[C@H]1CCCO1 [Example 3, N-[(2Z)-5-tert-butyl-3-[(2R)-tetrahydrofuran-2-ylmethyl]-1,3-thiazol-2(3H)-ylidene]-2-{[(2S)-1-methylazetidin-2-yl]methoxy}-5-(trifluoromethyl)benzamide] | 1020 nM | 7.4 nM | 4.5 nM | 0.09 nM | – | –
COCCn1cc(C(C)(C)C)s/c1=N\C(=O)c1cc(C(F)(F)F)ccc1OCc1cnccn1 [Example 41, N-[(2Z)-5-tert-butyl-3-(2-methoxyethyl)-1,3-thiazol-2(3H)-ylidene]-2-(pyrazin-2-ylmethoxy)-5-(trifluoromethyl)benzamide] | 5700 nM | 45 nM | 14 nM | – | – | 4.49 nM
CN1C[C@H](F)C[C@H]1COc1ccc(C(F)(F)F)cc1C(=O)/N=c1\sc(C(C)(C)C)cn1C[C@H]1CCCO1 [Example 54, N-[(2Z)-5-tert-butyl-3-[(2R)-tetrahydrofuran-2-ylmethyl]-1,3-thiazol-2(3H)-ylidene]-2-{[(2S,4R)-4-fluoro-1-methylpyrrolidin-2-yl]methoxy}-5-(trifluoromethyl)benzamide] | 362 nM | 2 nM | 1.5 nM | 0.15 nM | – | –
CC(C)(C)c1cn(C[C@H]2CCCO2)/c(=N/C(=O)c2cc(C(F)(F)F)ccc2OC[C@@H]2CCN2)s1 [Example 2, 2-[(2S)-azetidin-2-ylmethoxy]-N-[(2Z)-5-tert-butyl-3-[(2R)-tetrahydrofuran-2-ylmethyl]-1,3-thiazol-2(3H)-ylidene]-5-(trifluoromethyl)benzamide] | 3240 nM | 15 nM | 3 nM | 0.64 nM | – | –
CCN1CCC[C@H]1COc1ccc(C(F)(F)F)cc1C(=O)/N=c1\sc(C(C)(C)C)cn1C[C@H]1CCCO1 [Example 45, N-[(2Z)-5-tert-butyl-3-[(2R)-tetrahydrofuran-2-ylmethyl]-1,3-thiazol-2(3H)-ylidene]-2-{[(2S)-1-ethylpyrrolidin-2-yl]methoxy}-5-(trifluoromethyl)benzamide] | 5010 nM | 8.2 nM | 8.6 nM | 0.83 nM | – | –
CN1CC[C@@H]1COc1ccc(C(F)(F)F)cc1C(=O)/N=c1\sc(C(C)(C)C)cn1C[C@H]1CCCO1 [Example 8, N-[(2Z)-5-tert-butyl-3-[(2R)-tetrahydrofuran-2-ylmethyl]-1,3-thiazol-2(3H)-ylidene]-2-{[(2R)-1-methylazetidin-2-yl]methoxy}-5-(trifluoromethyl)benzamide] | 3680 nM | 47 nM | 17 nM | 0.35 nM | – | –
